The source of these data is patent publication US7117100B2, “Method for the compositional analysis of polymers” (Massachusetts Institute of Technology, priority 1999, dated 2006).

One assay concerns the target FGF-2 (Homo sapiens, UniProt P09038). As to the kind of experiment: Saccharide binding to FGF-2 immobilized on the MALDI surface, salt wash, MALDI-MS detection. Here is the method:
Protein preparation and immobilization. ATIII was incubated overnight with excess porcine mucosal heparin, then biotinylated with EZ-link sulfo-NHS biotin (Pierce). Canon NP Type E transparency film was taped to the MALDI sample plate and used as a protein immobilization surface. FGF-1 and FGF-2 were immobilized by spotting 1 μl of aqueous solution on the film and air-drying. ATIII was immobilized by first drying 4 μg neutravidin on the film surface, then adding biotinylated ATIII to the neutravidin spot. Heparin was removed by washing ten times with 1M NaCl and ten times with water.
Saccharide binding, selection and analysis. Saccharides were derived from a partial digest of porcine mucosal heparin by heparinase I. The hexasaccharide fraction was obtained by size exclusion chromatography on Biogel P-6 and lyophilized to dryness. Saccharides were bound to immobilized proteins by spotting 1 μl of aqueous solution on the protein spot for at least five minutes. Unbound saccharides were removed by washing with water fifteen times. […] All saccharides were detected as noncovalent complexes with (RG)19R using MALDI parameters described herein.
Isolation, Purification, and Selection of FGF binders from SMC heparan sulfate. […] After drying, the sample was washed, 2 pmol/μl (RG)19R in matrix was added, and the sample was analyzed as outlined above.

The target in the next assay is T1, heparinase III (Pedobacter heparinus, UniProt Q59289).
T1 construct: made in house
As to the kind of experiment: Cleavage of defined oligosaccharide substrates by heparinase III. The assay is classed as biochemical, Flavobacterium heparinum. From the text: Secondary specificities of the heparinases have been observed, especially under exhaustive degradation conditions. As a part of ongoing investigations into the enzymology of heparinases, the relative rates of cleavage of I and G containing sites by heparinase I and III with defined substrates under different conditions have been measured. For instance heparinase III cleaves both at I and G containing linkages and not I2S [H. E. Conrad, Heparin Binding Proteins (Academic Press, San Diego, 1998).]. However, under the reaction conditions used in this study, there is a dramatic (8-10 fold) difference in the rates of cleavage, with I-containing linkages being clipped more slowly than G-containing linkages (FIG. 7A). […] Each reaction was followed by capillary electrophoresis. […] Under the “short” conditions of digest it is expected that only G-containing saccharides are cleaved to an appreciable extent. [Conditions for enzymatic digest of HLGAG oligosaccharides were set forth above, briefly, Digests were either designated as “short” or “exhaustive”. Short digests were completed with 50 nM enzyme for 10 minutes. Exhaustive digests were completed using 200 nM enzyme for either four hours or overnight. Partial nitrous acid cleavage was completed using a modification of published procedures. Briefly, to an aqueous solution of saccharide was added a 2× solution of sodium nitrite in HCl such that the concentration of nitrous acid was 2 mM and HCl was 20 mM. The reaction was allowed to proceed at room temperature with quenching of aliquots at various time points via the addition of 1 μL of 200 mM sodium acetate 1 mg/mL BSA pH 6.0. Exhaustive nitrous acid was completed by reacting saccharide with 4 mM nitrous acid in HCl overnight at room temperature.
Quite a few factors have severely limited and complicated prior art studies and interpretation of heparinase substrate specificity experiments. First, not only is a homogenous substrate preparation difficult, but also analyzing the substrates and products have been very challenging. […]

Another assay concerns Heparinase II. As to the kind of experiment: Incubation of hexasaccharide with heparinase II. The assay is classed as biochemical.
The nature of assay [1]: Relative rates of cleavage of tetrasaccharides by recombinant heparinase III, followed by capillary electrophoresis. In kind it is biochemical. From the text: (§1) Secondary specificities of the heparinases have been observed, especially under exhaustive degradation conditions. As a part of ongoing investigations into the enzymology of heparinases, the relative rates of cleavage of I and G containing sites by heparinase I and III with defined substrates under different conditions have been measured. For instance heparinase III cleaves both at I and G containing linkages and not I2S [H. E. Conrad, Heparin Binding Proteins (Academic Press, San Diego, 1998).]. However, under the reaction conditions used in this study, there is a dramatic (8-10 fold) difference in the rates of cleavage, with I-containing linkages being clipped more slowly than G-containing linkages (FIG. 7A). […] Each reaction was followed by capillary electrophoresis. […] Under the “short” conditions of digest it is expected that only G-containing saccharides are cleaved to an appreciable extent. [Conditions for enzymatic digest of HLGAG oligosaccharides were set forth above, briefly, Digests were either designated as “short” or “exhaustive”. Short digests were completed with 50 nM enzyme for 10 minutes. Exhaustive digests were completed using 200 nM enzyme for either four hours or overnight. Partial nitrous acid cleavage was completed using a modification of published procedures. […]

Assay [2] can be described thus: Cleavage of tetrasaccharides by heparinase I. The assay is classed as biochemical. Conditions: tetrasaccharide substrates, same study as FIG. 7A.
Description: as §1

FGF-2, sequence (P09038 134-288 limits assumed, species assumed): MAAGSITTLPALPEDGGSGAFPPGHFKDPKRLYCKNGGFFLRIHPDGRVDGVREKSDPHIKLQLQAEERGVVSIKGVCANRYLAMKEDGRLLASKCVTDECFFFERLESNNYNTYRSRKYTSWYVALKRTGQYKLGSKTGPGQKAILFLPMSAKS

“ΔU2SHNS,6SI2SHNS,6SI2SHNS,6S [nonasulfated hexasaccharide]”: the “FGF-2 binder selected from SMC heparan sulfate” value on FGF-2 (bovine aortic SMC HLGAG fragments digested with heparinase II, spotted on FGF-2) is recorded as “high affinity binder”. Also, on FGF-2 (hexasaccharide fraction from incomplete heparinase I digestion of porcine intestinal mucosa heparin), the “Structures remaining on immobilized FGF upon a salt wash” value was “remained”.
Consider ΔUHNH,6SGHNSIHNAc, for which, on heparinase III ("short" digest conditions), the “Cleavage by heparinase III” value was “cleavage occurs only at the G”. In addition, in the assay with Heparinase II, the “Cleavage by heparinase II” value is “only cleavage at the G and not the I was observed”.
Regarding ΔU2SHNS,6SI2SHNS,6S, the “Degradation by a commercial source of heparinase III” value on heparinase III (commercial enzyme, sulfatase contamination suggested) is recorded as “able to degrade”. Further, at heparinase III (recombinant enzyme without contamination by other heparin degrading enzymes), the “Cleavage by recombinant heparinase III” value is “does not cleave”.

B1: heparinase III: HLGAG degrading enzyme; cleaves at a glycosidic linkage before an unsulfated glucuronic acid (protein, UniProt Q59289 25-659, looked up)
Heparin-sulfate lyase: QSSSITRKDFDHINLEYSGLEKVNKAVAAGNYDDAAKALLAYYREKSKAREPDFSNAEKPADIRQPIDKVTREMADKALVHQFQPHKGYGYFDYGKDINWQMWPVKDNEVRWQLHRVKWWQAMALVYHATGDEKYAREWVYQYSDWARKNPLGLSQDNDKFVWRPLEVSDRVQSLPPTFSLFVNSPAFTPAFLMEFLNSYHQQADYLSTHYAEQGNHRLFEAQRNLFAGVSFPEFKDSPRWRQTGISVLNTEIKKQVYADGMQFELSPIYHVAAIDIFLKAYGSAKRVNLEKEFPQSYVQTVENMIMALISISLPDYNTPMFGDSWITDKNFRMAQFASWARVFPANQAIKYFATDGKQGKAPNFLSKALSNAGFYTFRSGWDKNATVMVLKASPPGEFHAQPDNGTFELFIKGRNFTPDAGVFVYSGDEAIMKLRNWYRQTRIHSTLTLDNQNMVITKARQNKWETGNNLDVLTYTNPSYPNLDHQRSVLFINKKYFLVIDRAIGEATGNLGVHWQLKEDSNPVFDKTKNRVYTTYRDGNNLMIQSLNADRTSLNEEEGKVSYVYNKELKRPAFVFEKPKKNAGTQNFVSIVYPYDGQKAPEISIRENKGNDFEKGKLNLTLTINGKQQLVLVP
Regarding B1, the “Difference in the rates of cleavage, I-containing linkages clipped more slowly than G-containing linkages” value in assay [1] (reaction conditions of this study) was 8-10 fold. In addition, the “Cleavage of G-containing linkages relative to I-containing linkages” value in assay [1] (recombinant heparinase III, tetrasaccharide substrates) was “roughly 10 times”.

B2: heparinase I: HLGAG degrading enzyme; clips at a glycosidic linkage before a 2-O sulfated iduronic acid (protein, UniProt Q05819 22-384, looked up)
Heparin lyase I: QQKKSGNIPYRVNVQADSAKQKAIIDNKWVAVGINKPYALQYDDKLRFNGKPSYRFELKAEDNSLEGYAAGETKGRTELSYSYATTNDFKKFPPSVYQNAQKLKTVYHYGKGICEQGSSRSYTFSVYIPSSFPDNATTIFAQWHGAPSRTLVATPEGEIKTLSIEEFLALYDRMIFKKNIAHDKVEKKDKDGKITYVAGKPNGWKVEQGGYPTLAFGFSKGYFYIKANSDRQWLTDKADRNNANPENSEVMKPYSSEYKTSTIAYKMPFAQFPKDCWITFDVAIDWTKYGKEANTILKPGKLDVMMTYTKNKKPQKAHIVNQQEILIGRNDDDGYYFKFGIYRVGNSTVPVTYNLSGYSETAR
Take B2: in assay [2], the “Linkage specificity of cleavage by heparinase I” value was “cleavage only occurs at I2S-containing linkages”.
